Laboratory results: ChEMBL document CHEMBL5505983, “Design, synthesis, and molecular modeling studies of novel 2-quinolone-1,2,3-triazole-α-aminophosphonates hybrids as dual antiviral and antibacterial agents” (Eur J Med Chem, 2024)
≈ marks a conversion by molar mass, not a printed value.

Tests used:
Chikungunya virus = test: Antiviral activity against CHIKV infected in African green monkey Vero A cells assessed as inhibition of cytopathic effect by microscopy based analysis; type: functional, organism-based
Staphylococcus aureus [1] = test: Bactericidal activity against Staphylococcus aureus CIP 54127; type: functional
Enterococcus faecalis [2] = test: Antibacterial activity against Enterococcus faecalis assessed as reduction in bacterial growth by micro-broth dilution method; type: functional
Escherichia coli [3] = test: Ratio of MBC to MIC for Escherichia coli CIP 53154; type: functional
[4] = Cytotoxicity against human RD cells; type: toxicity, cell-based
Enterococcus faecalis [5] = test: Bactericidal activity against Enterococcus faecalis; type: functional
Yellow fever virus = test: Antiviral activity against Yellow fever virus infected in human Huh-7 cells assessed as inhibition of cytopathic effect by microscopy based analysis; type: functional, organism-based
Enterococcus faecalis [6] = test: Ratio of MBC to MIC for Enterococcus faecalis; type: functional
Pseudomonas aeruginosa [7] = test: Bactericidal activity against Pseudomonas aeruginosa CIP A22; type: functional
Enterovirus A71 = test: Antiviral activity against human EV71 infected in human RD cells assessed as inhibition of cytopathic effect by microscopy based analysis; type: functional, organism-based; conditions: Enterovirus A
Escherichia coli [8] = test: Bactericidal activity against Escherichia coli CIP 53154; type: functional
Staphylococcus aureus [9] = test: Antibacterial activity against Staphylococcus aureus CIP 54127 assessed as reduction in bacterial growth by micro-broth dilution method; type: functional
Pseudomonas aeruginosa [10] = test: Antibacterial activity against Pseudomonas aeruginosa CIP A22 assessed as reduction in bacterial growth by micro-broth dilution method; type: functional
Human rhinovirus sp. [11] = test: Antiviral activity against Human rhinovirus A2 infected in human HeLa-RH cells assessed as inhibition of cytopathic effect by microscopy based analysis; type: functional, organism-based
Pseudomonas aeruginosa [12] = test: Ratio of MBC to MIC for Pseudomonas aeruginosa CIP A22; type: functional
[13] = Cytotoxicity against African green monkey Vero E6 cells; type: toxicity, cell-based, Vero C1008; conditions: chlorocebus sabaeus
Zika virus = test: Antiviral activity against Zika virus infected in african green monkey Vero E6 cells assessed as inhibition of cytopathic effect by microscopy based analysis; type: functional, organism-based; conditions: Vero C1008
[14] = Cytotoxicity against human Huh-7 cells; type: toxicity, cell-based
[15] = Cytotoxicity against African green monkey Vero A cells; type: toxicity, cell-based; conditions: chlorocebus sabaeus
[16] = Cytotoxicity against human HeLa-RH cells; type: toxicity, cell-based
Escherichia coli [17] = test: Antibacterial activity against Escherichia coli CIP 53154 assessed as reduction in bacterial growth by micro-broth dilution method; type: functional
Staphylococcus aureus [18] = test: Ratio of MBC to MIC for Staphylococcus aureus CIP 54127; type: functional
Human rhinovirus sp. [19] = test: Antiviral activity against Human rhinovirus B14 infected in human HeLa-RH cells assessed as inhibition of cytopathic effect by microscopy based analysis; type: functional, organism-based

Question: With `CCOP(=O)(OCC)C(Nc1ccccc1Cl)c1cc(Cn2cc(Cn3c(=O)cc(C)c4ccccc43)nn2)ccc1O` (stereo not drawn) as the compound, how does the IC50 (Chikungunya virus) read?
Answer: > 33.3 µM

Question: What about the MBC (Staphylococcus aureus [1]) of the same compound?
Answer: 500 µM (≈ 311 µg/mL)

Question: And the MIC (Enterococcus faecalis [2])?
Answer: 60 µM (≈ 37.3 µg/mL)

Question: What about the Ratio (Escherichia coli [3]) of the same compound?
Answer: 1

Question: What about the CC50 [4] of the same compound?
Answer: > 100 µM

Question: And the MBC (Enterococcus faecalis [5])?
Answer: 60 µM (≈ 37.3 µg/mL)

Question: What about the IC50 (Yellow fever virus) of the same compound?
Answer: > 100 µM

Question: And the Ratio (Enterococcus faecalis [6])?
Answer: 1

Question: What about the MBC (Pseudomonas aeruginosa [7]) of the same compound?
Answer: 1010 µM (≈ 628 µg/mL)

Question: What about the IC50 (Enterovirus A71) of the same compound?
Answer: > 100 µM

Question: What about the MBC (Escherichia coli [8]) of the same compound?
Answer: 260 µM (≈ 162 µg/mL)

Question: And the MIC (Staphylococcus aureus [9])?
Answer: 500 µM (≈ 311 µg/mL)

Question: What about the MIC (Pseudomonas aeruginosa [10]) of the same compound?
Answer: 1010 µM (≈ 628 µg/mL)

Question: What about the IC50 (Human rhinovirus sp. [11]) of the same compound?
Answer: > 1.23 µM

Question: What about the Ratio (Pseudomonas aeruginosa [12]) of the same compound?
Answer: 1

Question: What about the CC50 [13] of the same compound?
Answer: > 33.3 µM

Question: What about the IC50 (Zika virus) of the same compound?
Answer: > 100 µM

Question: What about the CC50 [14] of the same compound?
Answer: 30.5 µM

Question: What about the CC50 [15] of the same compound?
Answer: 24.3 µM

Question: What about the CC50 [16] of the same compound?
Answer: 52.1 µM

Question: What about the MIC (Escherichia coli [17]) of the same compound?
Answer: 260 µM (≈ 162 µg/mL)

Question: What about the Ratio (Staphylococcus aureus [18]) of the same compound?
Answer: 1

Question: And the IC50 (Human rhinovirus sp. [19])?
Answer: > 100 µM

Question: With `CCOP(=O)(OCC)C(Nc1ccccc1)c1cc(Cn2cc(Cn3c(=O)cc(C)c4cc(F)ccc43)nn2)ccc1O` (stereo not drawn) as the compound, how does the IC50 (Chikungunya virus) read?
Answer: > 100 µM

Question: What about the MBC (Staphylococcus aureus [1]) of the same compound?
Answer: 1040 µM (≈ 630 µg/mL)

Question: And the MIC (Enterococcus faecalis [2])?
Answer: 2060 µM (≈ 1250 µg/mL)

Question: And the Ratio (Escherichia coli [3])?
Answer: 1

Question: What about the CC50 [4] of the same compound?
Answer: > 100 µM

Question: And the MBC (Enterococcus faecalis [5])?
Answer: 2060 µM (≈ 1250 µg/mL)

Question: What about the IC50 (Yellow fever virus) of the same compound?
Answer: > 100 µM

Question: And the Ratio (Enterococcus faecalis [6])?
Answer: 1

Question: And the MBC (Pseudomonas aeruginosa [7])?
Answer: 8260 µM (≈ 5000 µg/mL)

Question: What about the IC50 (Enterovirus A71) of the same compound?
Answer: > 100 µM

Question: And the MBC (Escherichia coli [8])?
Answer: 1040 µM (≈ 630 µg/mL)

Question: What about the MIC (Staphylococcus aureus [9]) of the same compound?
Answer: 510 µM (≈ 309 µg/mL)

Question: And the MIC (Pseudomonas aeruginosa [10])?
Answer: 8260 µM (≈ 5000 µg/mL)

Question: What about the IC50 (Human rhinovirus sp. [11]) of the same compound?
Answer: > 1.23 µM

Question: And the Ratio (Pseudomonas aeruginosa [12])?
Answer: 2

Question: What about the CC50 [13] of the same compound?
Answer: > 33.3 µM

Question: What about the IC50 (Zika virus) of the same compound?
Answer: > 100 µM

Question: And the CC50 [14]?
Answer: 46.2 µM

Question: And the CC50 [15]?
Answer: > 100 µM

Question: And the CC50 [16]?
Answer: > 100 µM

Question: And the MIC (Escherichia coli [17])?
Answer: 1040 µM (≈ 630 µg/mL)

Question: What about the Ratio (Staphylococcus aureus [18]) of the same compound?
Answer: 2.04

Question: What about the IC50 (Human rhinovirus sp. [19]) of the same compound?
Answer: > 100 µM

Question: With `CCOP(=O)(OCC)C(Nc1ccccc1OC)c1cc(Cn2cc(Cn3c(=O)cc(C)c4ccccc43)nn2)ccc1O` (stereo not drawn) as the compound, how does the IC50 (Chikungunya virus) read?
Answer: > 100 µM

Question: What about the MBC (Staphylococcus aureus [1]) of the same compound?
Answer: 500 µM (≈ 309 µg/mL)

Question: And the MIC (Enterococcus faecalis [2])?
Answer: 2020 µM (≈ 1250 µg/mL)

Question: And the Ratio (Escherichia coli [3])?
Answer: 2.04

Question: What about the CC50 [4] of the same compound?
Answer: > 100 µM

Question: And the MBC (Enterococcus faecalis [5])?
Answer: 2020 µM (≈ 1250 µg/mL)

Question: What about the IC50 (Yellow fever virus) of the same compound?
Answer: > 100 µM

Question: And the Ratio (Enterococcus faecalis [6])?
Answer: 1

Question: And the MBC (Pseudomonas aeruginosa [7])?
Answer: 1020 µM (≈ 630 µg/mL)

Question: What about the IC50 (Enterovirus A71) of the same compound?
Answer: > 100 µM

Question: What about the MBC (Escherichia coli [8]) of the same compound?
Answer: 1020 µM (≈ 630 µg/mL)

Question: And the MIC (Staphylococcus aureus [9])?
Answer: 260 µM (≈ 161 µg/mL)

Question: And the MIC (Pseudomonas aeruginosa [10])?
Answer: 1020 µM (≈ 630 µg/mL)

Question: What about the IC50 (Human rhinovirus sp. [11]) of the same compound?
Answer: > 1.23 µM

Question: What about the Ratio (Pseudomonas aeruginosa [12]) of the same compound?
Answer: 1

Question: What about the CC50 [13] of the same compound?
Answer: > 33.3 µM

Question: What about the IC50 (Zika virus) of the same compound?
Answer: > 100 µM

Question: What about the CC50 [14] of the same compound?
Answer: 51.8 µM

Question: And the CC50 [15]?
Answer: 77.2 µM

Question: And the CC50 [16]?
Answer: > 33.3 µM

Question: What about the MIC (Escherichia coli [17]) of the same compound?
Answer: 500 µM (≈ 309 µg/mL)

Question: What about the Ratio (Staphylococcus aureus [18]) of the same compound?
Answer: 1.92

Question: What about the IC50 (Human rhinovirus sp. [19]) of the same compound?
Answer: > 100 µM

Question: Which results are given for `CCOP(=O)(OCC)C(Nc1ccc(C)cc1)c1cc(Cn2cc(Cn3c(=O)cc(C)c4ccccc43)nn2)ccc1O` (stereo not drawn)?
Answer: IC50 (Chikungunya virus): > 100 µM; MBC (Staphylococcus aureus [1]): 520 µM (≈ 313 µg/mL); MIC (Enterococcus faecalis [2]): 70 µM (≈ 42.1 µg/mL); Ratio (Escherichia coli [3]): 1; CC50 [4]: > 100 µM; MBC (Enterococcus faecalis [5]): 70 µM (≈ 42.1 µg/mL); IC50 (Yellow fever virus): > 100 µM; Ratio (Enterococcus faecalis [6]): 1; MBC (Pseudomonas aeruginosa [7]): 4160 µM (≈ 2500 µg/mL); IC50 (Enterovirus A71): > 100 µM; MBC (Escherichia coli [8]): 520 µM (≈ 313 µg/mL); MIC (Staphylococcus aureus [9]): 520 µM (≈ 313 µg/mL); MIC (Pseudomonas aeruginosa [10]): 4160 µM (≈ 2500 µg/mL); IC50 (Human rhinovirus sp. [11]): > 3.7 µM; Ratio (Pseudomonas aeruginosa [12]): 2; CC50 [13]: > 100 µM; IC50 (Zika virus): > 100 µM; CC50 [14]: 27.9 µM; CC50 [15]: > 100 µM; CC50 [16]: > 100 µM; MIC (Escherichia coli [17]): 520 µM (≈ 313 µg/mL); Ratio (Staphylococcus aureus [18]): 1; IC50 (Human rhinovirus sp. [19]): > 100 µM

Question: Which MBC (Staphylococcus aureus [1]) does the source give for `CC1(C)S[C@@H]2[C@H](NC(=O)[C@H](N)c3ccccc3)C(=O)N2[C@H]1C(=O)O` [AMPICILLIN] here?
Answer: 270 µM (≈ 94.3 µg/mL)

Question: What about the MIC (Enterococcus faecalis [2]) of the same compound?
Answer: 260 µM (≈ 90.8 µg/mL)

Question: And the Ratio (Escherichia coli [3])?
Answer: 2.04

Question: What about the MBC (Enterococcus faecalis [5]) of the same compound?
Answer: 260 µM (≈ 90.8 µg/mL)

Question: And the Ratio (Enterococcus faecalis [6])?
Answer: 1

Question: And the MBC (Pseudomonas aeruginosa [7])?
Answer: 530 µM (≈ 185 µg/mL)

Question: What about the MBC (Escherichia coli [8]) of the same compound?
Answer: 530 µM (≈ 185 µg/mL)

Question: What about the MIC (Staphylococcus aureus [9]) of the same compound?
Answer: 270 µM (≈ 94.3 µg/mL)

Question: What about the MIC (Pseudomonas aeruginosa [10]) of the same compound?
Answer: 530 µM (≈ 185 µg/mL)

Question: What about the Ratio (Pseudomonas aeruginosa [12]) of the same compound?
Answer: 1.96

Question: And the MIC (Escherichia coli [17])?
Answer: 260 µM (≈ 90.8 µg/mL)

Question: And the Ratio (Staphylococcus aureus [18])?
Answer: 1

Question: With `CCN(CC)CCCC(C)Nc1ccnc2cc(Cl)ccc12` (stereo not drawn) [CHLOROQUINE] as the compound, how does the IC50 (Chikungunya virus) read?
Answer: 11 µM

Question: And the CC50 [15]?
Answer: 89 µM

Question: With `CO[C@H]1/C=C/O[C@@]2(C)Oc3c(C)c(O)c4c(O)c(c(/C=N/N5CCN(C)CC5)c(O)c4c3C2=O)NC(=O)/C(C)=C\C=C\[C@H](C)[C@H](O)[C@@H](C)[C@@H](O)[C@@H](C)[C@H](OC(C)=O)[C@@H]1C` [RIFAMPIN] as the compound, how does the MBC (Staphylococcus aureus [1]) read?
Answer: 150 µM (≈ 123 µg/mL)

Question: And the MIC (Enterococcus faecalis [2])?
Answer: 300 µM (≈ 247 µg/mL)

Question: What about the Ratio (Escherichia coli [3]) of the same compound?
Answer: 2.03

Question: And the MBC (Enterococcus faecalis [5])?
Answer: 300 µM (≈ 247 µg/mL)

Question: And the Ratio (Enterococcus faecalis [6])?
Answer: 1

Question: And the MBC (Pseudomonas aeruginosa [7])?
Answer: 610 µM (≈ 502 µg/mL)

Question: What about the MBC (Escherichia coli [8]) of the same compound?
Answer: 610 µM (≈ 502 µg/mL)

Question: And the MIC (Staphylococcus aureus [9])?
Answer: 80 µM (≈ 65.8 µg/mL)

Question: And the MIC (Pseudomonas aeruginosa [10])?
Answer: 610 µM (≈ 502 µg/mL)

Question: And the Ratio (Pseudomonas aeruginosa [12])?
Answer: 2.03

Question: And the MIC (Escherichia coli [17])?
Answer: 300 µM (≈ 247 µg/mL)

Question: What about the Ratio (Staphylococcus aureus [18]) of the same compound?
Answer: 1.88
